The target of test [1] is T1, Prothrombin (Bos taurus, UniProt P00735). The experiment in a line: Concentration at which the clotting time was prolonged by twice the control was determined using topical bovine thrombin. As to conditions: read-out: I50. The format is functional.
Test [2] has as its target T1, Prothrombin. Briefly: Concentration at which the clotting time was prolonged by twice the control was determined using commercial topical bovine thrombin. The format is functional.
In test [3] the target is Prothrombin (Bos taurus) (UniProt P00735). The experiment in a line: Rate of hydrolysis by thrombin relative to TAME.
In test [4] the target is Serine protease 1 (Homo sapiens) (UniProt P07477). Briefly: Rate of hydrolysis by trypsin relative to TAME.
Sequence of Serine protease 1 (Homo sapiens) (P07477 whole entry): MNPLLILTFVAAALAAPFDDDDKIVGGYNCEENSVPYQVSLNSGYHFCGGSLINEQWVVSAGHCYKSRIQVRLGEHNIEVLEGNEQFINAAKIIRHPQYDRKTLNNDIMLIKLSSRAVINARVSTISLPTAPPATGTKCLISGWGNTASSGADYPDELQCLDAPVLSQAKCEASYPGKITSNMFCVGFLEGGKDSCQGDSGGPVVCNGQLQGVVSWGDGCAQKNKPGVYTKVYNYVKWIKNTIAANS

Regarding `CCC(COC(=O)C(CCCN=C(N)N)NS(=O)(=O)c1cccc2c(N(C)C)cccc12)[N+](=O)[O-]` (configuration not stated), the IC50 in test [1] is 200 µM.
As to `COC(=O)C(CCCN=C(N)N)NS(=O)(=O)c1cccc2c(N(C)C)cccc12` (configuration not stated), the IC50 in test [1] amounted to 20 µM; in test [2] it was 2000 µM.
Take `CN(C)c1cccc2c(S(=O)(=O)NC(CCCNC(=N)N)C(=O)OCC3CCCO3)cccc12` (configuration not stated): the IC50 in test [1] is 20 µM.
Still for that read-out and setting: under `C#CCCOC(=O)C(CCCN=C(N)N)NS(=O)(=O)c1cccc2c(N(C)C)cccc12` (configuration not stated) stands 4 µM; under `CC(C)OC(=O)C(CCCNC(=N)N)NS(=O)(=O)c1cccc2c(N(C)C)cccc12` (configuration not stated), 30 µM; under `CCCCCOC(=O)C(CCCN=C(N)N)NS(=O)(=O)c1cccc2c(N(C)C)cccc12` (configuration not stated), 49 µM.
Still for that read-out and setting: under `CCOC(=O)C(CCCNC(=N)N)NS(=O)(=O)c1cccc2c(N(C)C)cccc12` (configuration not stated) stands 8 µM.
In the case of `COC(=O)C(CCCN=C(N)N)NS(=O)(=O)c1ccc(N)cc1` (configuration not stated), in test [1], the IC50 was found to be 4800 µM.
On the same count and under the same terms, for `CN(C)c1cccc2c(S(=O)(=O)NC(CCCN=C(N)N)C(=O)O)cccc12` (configuration not stated) the value was over 1000 µM; for `COC(=O)C(CCCNC(=N)N)NS(=O)(=O)c1cccc2ccccc12` (configuration not stated), 520 µM; for `COC(=O)C(CCCNC(=N)N)NS(=O)(=O)c1ccc(OC)cc1` (configuration not stated), 100 µM.
Same read-out and setting: for `CC(C)COC(=O)C(CCCN=C(N)N)NS(=O)(=O)c1cccc2c(N(C)C)cccc12` (configuration not stated) the value was 10 µM; for `COCCOC(=O)C(CCCNC(=N)N)NS(=O)(=O)c1cccc2c(N(C)C)cccc12` (configuration not stated), 5 µM.
For `COC(=O)C(CCCN=C(N)N)NS(=O)(=O)c1cccc2cc(N(C)C)ccc12` (configuration not stated), in test [1], the IC50 is 100 µM.
Same read-out and setting: for `COC(=O)C(CCCN=C(N)N)NS(=O)(=O)c1ccc2ccccc2c1` (configuration not stated) the value was 130 µM; for `COC(=O)C(CCCN=C(N)N)NS(=O)(=O)c1cccc([N+](=O)[O-])c1` (configuration not stated), 2900 µM; for `CN(C)c1cccc2c(S(=O)(=O)NC(CCCNC(=N)N)C(=O)OCc3ccccc3)cccc12` (configuration not stated), 2 µM.
Same read-out and setting: for `CCC(C)OC(=O)C(CCCNC(=N)N)NS(=O)(=O)c1cccc2c(N(C)C)cccc12` (configuration not stated) the value was 2000 µM; for `COC(=O)C(CCCN=C(N)N)NS(=O)(=O)c1ccc([N+](=O)[O-])cc1` (configuration not stated), 2400 µM; for `C/C=C/COC(=O)C(CCCNC(=N)N)NS(=O)(=O)c1cccc2c(N(C)C)cccc12` (configuration not stated), 2 µM.
On the same count and under the same terms, for `CCCOC(=O)C(CCCN=C(N)N)NS(=O)(=O)c1cccc2c(N(C)C)cccc12` (configuration not stated) the value was 2 µM.
Consider `CN(C)c1cccc2c(S(=O)(=O)NC(CCCN=C(N)N)C(=O)OCCCCl)cccc12` (configuration not stated), for which the results for the Relative hydrolysis in test [3] and in test [4] were 0.084 and 0.5, respectively.
For the compound `COC(=O)C(CCCNC(=N)N)NS(=O)(=O)c1ccc(Cl)cc1` (configuration not stated), the IC50 in test [1] came out at 2700 µM.
Regarding `CN(C)c1cccc2c(S(=O)(=O)NC(CCCN=C(N)N)C(=O)OC3CCCCC3)cccc12` (configuration not stated), the IC50 in test [1] came out at 60 µM.
Still for that read-out and setting: under `COC(=O)C(CCCN=C(N)N)NS(=O)(=O)c1ccc(F)cc1` (configuration not stated) stands 5200 µM.

The values above are taken from ChEMBL document CHEMBL1121483, “Thrombin inhibitors. 1. Ester derivatives of N alpha-(arylsulfonyl)-L-arginine” (J Med Chem, 1980).
